Like-named read-outs stand apart in the source and are kept apart here.
Molecular target: T1, Human M4 (Homo sapiens, UniProt P08173)
T1 construct: expressed in transfected cells
T1 sequence (P08173 1-479): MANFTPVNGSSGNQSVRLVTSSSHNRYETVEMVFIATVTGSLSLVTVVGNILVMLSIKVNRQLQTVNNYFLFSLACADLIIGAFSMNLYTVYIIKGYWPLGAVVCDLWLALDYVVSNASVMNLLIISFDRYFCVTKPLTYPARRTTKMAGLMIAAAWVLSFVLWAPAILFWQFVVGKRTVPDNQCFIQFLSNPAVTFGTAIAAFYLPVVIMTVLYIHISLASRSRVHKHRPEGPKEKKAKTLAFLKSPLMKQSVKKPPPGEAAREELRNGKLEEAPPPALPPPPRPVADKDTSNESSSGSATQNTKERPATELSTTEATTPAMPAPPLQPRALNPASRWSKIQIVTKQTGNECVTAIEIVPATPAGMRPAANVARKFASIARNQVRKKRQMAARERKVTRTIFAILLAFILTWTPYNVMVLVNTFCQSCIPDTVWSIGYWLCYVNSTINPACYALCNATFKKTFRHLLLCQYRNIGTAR
Test: mAChR M4 cell-based functional assay (calcium flux, potentiation of EC20 acetylcholine response), hM4-Gqi5 CHO-K1 cells
Conditions: for Emax at 30 µM: % ACh maximum at 30 μM; for EC50: calcium flux, read-out: Human M4 EC50
How it was run: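 CHO-K1 cells stably expressing human M4 with chimeric Gqi5, loaded with Fluo-4 AM 50 min at 37 °C; calcium flux read by FDSS. 11-point 1:3 compound curves added, then EC20 acetylcholine at 144 s; potentiation of the EC20 response fitted by four-parameter logistic to give EC50 and Emax.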

[1] = CHO-K1, human M4, read-out: Emax
[2] = hM4-Gqi5 CHO-K1 cells, PAM of EC20 acetylcholine
[3] = CHO-K1, Table 3, Human M4, read-out: Emax (% ACh maximum at 30 μM)
[4] = Table 3, potentiation of EC20 acetylcholine response, CHO-K1 cells
[5] = CHO-K1, Table 4, Human M4, read-out: Emax (% ACh maximum at 30 μM)
[6] = Table 4, potentiation of EC20 acetylcholine response, CHO-K1 cells

Row | SMILES | Emax at 30 µM [1] [%] | EC50 [2] [µM] | Emax at 30 µM [3] [%] | EC50 [4] [µM] | also measured
1 | Cc1c(N2CCc3ncc(Nc4ccccc4Cl)cc3C2)nn2cnnc2c1C [Compound 50, N-(2-chlorophenyl)-6-(7,8-dimethyl-[1,2,4]triazolo[4,3-b]pyridazin-6-yl)-7,8-dihydro-5H-1,6-naphthyridin-3-amine] | 85 | 0.211 |  |  | 
2 | Cc1c(N2CCc3ncc(N4CCOCC4)cc3C2)nn2c(C(F)(F)F)nnc2c1C [Compound 271, 4-(6-(7,8-dimethyl-3-(trifluoromethyl)-[1,2,4]triazolo[4,3-b]pyridazin-6-yl)-5,6,7,8-tetrahydro-1,6-naphthyridin-3-yl)morpholine] |  |  | 89 | 0.264 | 
3 | Cc1c(N2CCc3ncc(-n4nccc4C)cc3C2)nn2c(C(F)(F)F)nnc2c1C [Compound 242, 6-(7,8-dimethyl-3-(trifluoromethyl)-[1,2,4]triazolo[4,3-b]pyridazin-6-yl)-3-(5-methyl-1H-pyrazol-1-yl)-5,6,7,8-tetrahydro-1,6-naphthyridine] |  |  | 80 | 0.696 | 
4 | [2H]c1nnc2c(C)c(C)c(N3CCc4ncc(-c5c(C)nn(C)c5C)cc4C3)nn12 [Compound 75, 6-(3-deuterio-7,8-dimethyl-[1,2,4]triazolo[4,3-b]pyridazin-6-yl)-3-(1,3,5-trimethylpyrazol-4-yl)-7,8-dihydro-5H-1,6-naphthyridine] | 99 | 0.164 |  |  | 
5 | [2H]C1([2H])Cc2ncc(Nc3cc(C)ncc3F)cc2C([2H])([2H])N1c1nn2cnnc2cc1C [Compound 352, N-(5-fluoro-2-methylpyridin-4-yl)-6-(7-methyl-[1,2,4]triazolo[4,3-b]pyridazin-6-yl)-5,6,7,8-tetrahydro-1,6-naphthyridin-5,5,7,7-d4-3-amine] |  |  |  |  | Emax at 30 µM [5]: 98%; EC50 [6]: 0.067 µM
6 | Cc1cc2n(n1)CCCN2c1cnc2c(c1)CN(c1nn3c(C(F)(F)F)nnc3c(C)c1C)CC2 [Compound 320, 6-(7,8-dimethyl-3-(trifluoromethyl)-[1,2,4]triazolo[4,3-b]pyridazin-6-yl)-3-(2-methyl-6,7-dihydropyrazolo[1,5-a]pyrimidin-4(5H)-yl)-5,6,7,8-tetrahydro-1,6-naphthyridine] |  |  |  |  | Emax at 30 µM [5]: 76%; EC50 [6]: 0.121 µM
7 | Cc1cc2nncn2nc1N1CCc2ncc(C(C)(O)C(F)(F)F)cc2C1 (stereo not shown) [Compound 335, 1,1,1-trifluoro-2-(6-(7-methyl-[1,2,4]triazolo[4,3-b]pyridazin-6-yl)-5,6,7,8-tetrahydro-1,6-naphthyridin-3-yl)propan-2-ol] |  |  |  |  | Emax at 30 µM [5]: 77%; EC50 [6]: 1.7 µM
8 | Cc1cc(Nc2cnc3c(c2)CN(c2nn4cnnc4c(C)c2C)CC3)n(CC(C)C)n1 [Compound 212, 6-(7,8-dimethyl-[1,2,4]triazolo[4,3-b]pyridazin-6-yl)-N-(1-isobutyl-3-methyl-1H-pyrazol-5-yl)-5,6,7,8-tetrahydro-1,6-naphthyridin-3-amine] |  |  | 41 | 5.41 | 
9 | [2H]c1nnc2c(C)c(C)c(N3CCc4ncc(Nc5ccccc5F)cc4C3)nn12 [Compound 71, 6-(3-deuterio-7,8-dimethyl-[1,2,4]triazolo[4,3-b]pyridazin-6-yl)-N-(2-fluorophenyl)-7,8-dihydro-5H-1,6-naphthyridin-3-amine] | 102 | 0.0656 |  |  | 
10 | Cc1c(N2CCc3ncc(C(F)(F)F)cc3C2)nn2cnnc2c1C(F)(F)F [Compound 351, 6-(7-Methyl-8-(trifluoromethyl)-[1,2,4]triazolo[4,3-b]pyridazin-6-yl)-3-(trifluoromethyl)-5,6,7,8-tetrahydro-1,6-naphthyridine] |  |  |  |  | Emax at 30 µM [5]: 77%; EC50 [6]: 1.4 µM
11 | Cc1nn(C)cc1-c1cnc2c(c1)CN(c1nn3cnnc3c(C)c1C)CC2 [Compound 22, 3-(1,3-dimethylpyrazol-4-yl)-6-(7,8-dimethyl-[1,2,4]triazolo[4,3-b]pyridazin-6-yl)-7,8-dihydro-5H-1,6-naphthyridine] | 93 | 0.146 |  |  | 
12 | Cc1c(N2CCc3ncc(C(=O)Nc4ccccc4F)cc3C2)nn2c(C(F)(F)F)nnc2c1C [Compound 226, 6-(7,8-dimethyl-3-(trifluoromethyl)-[1,2,4]triazolo[4,3-b]pyridazin-6-yl)-N-(2-fluorophenyl)-5,6,7,8-tetrahydro-1,6-naphthyridine-3-carboxamide] |  |  | 79 | 1.78 | 
13 | CCOC(=O)c1c(C)nc2c(C)c(C)c(N3CCc4ncc(C(F)(F)F)cc4C3)nn12 [Compound 339, Ethyl 2,7,8-trimethyl-6-(3-(trifluoromethyl)-7,8-dihydro-1,6-naphthyridin-6(5H)-yl)imidazo[1,2-b]pyridazine-3-carboxylate] |  |  |  |  | Emax at 30 µM [5]: 67%; EC50 [6]: 1.9 µM
14 | Cc1cc2nnc(C(F)(F)F)n2nc1N1CCc2ncc(C(F)(F)F)cc2C1 [Compound 319, 6-(7-methyl-3-(trifluoromethyl)-[1,2,4]triazolo[4,3-b]pyridazin-6-yl)-3-(trifluoromethyl)-5,6,7,8-tetrahydro-1,6-naphthyridine] |  |  |  |  | Emax at 30 µM [5]: 96%; EC50 [6]: 0.794 µM
15 | Cc1c(N2CCc3ncc(N4CCOc5ccccc54)cc3C2)nn2c(C(F)(F)F)nnc2c1C [Compound 230, 4-(6-(7,8-dimethyl-3-(trifluoromethyl)-[1,2,4]triazolo[4,3-b]pyridazin-6-yl)-5,6,7,8-tetrahydro-1,6-naphthyridin-3-yl)-3,4-dihydro-2H-benzo[b][1,4]oxazine] |  |  | 83 | 0.398 | 
16 | Cc1c(N2CCc3ncc(N4CCCc5ccccc54)cc3C2)nn2c(C(F)(F)F)nnc2c1C [Compound 231, 3-(3,4-dihydroquinolin-1(2H)-yl)-6-(7,8-dimethyl-3-(trifluoromethyl)-[1,2,4]triazolo[4,3-b]pyridazin-6-yl)-5,6,7,8-tetrahydro-1,6-naphthyridine] |  |  | 65 | 1.93 | 
17 | COC1CCCN(c2cnc3c(c2)CN(c2nn4c(C(F)(F)F)nnc4c(C)c2C)CC3)C1 (stereo not shown) [Compound 292, 6-(7,8-dimethyl-3-(trifluoromethyl)-[1,2,4]triazolo[4,3-b]pyridazin-6-yl)-3-(3-methoxypiperidin-1-yl)-5,6,7,8-tetrahydro-1,6-naphthyridine] |  |  | 106 | 0.556 | 
18 | Cc1c(N2CCc3ncccc3C2)nn2cnnc2c1C [Compound 1, 6-(7,8-dimethyl-[1,2,4]triazolo[4,3-b]pyridazin-6-yl)-7,8-dihydro-5H-1,6-naphthyridine] |  | 3.97 |  |  | Emax (CHO-K1): 97%

Further lines, with some results ahead:

Row | Emax at 30 µM [1] [%] | EC50 [2] [µM] | Emax at 30 µM [3] [%] | EC50 [4] [µM] | SMILES | also measured
19 | 97 | 0.232 |  |  | Cc1cc2nncn2nc1N1CCc2ncc(-c3cncs3)cc2C1 [Compound 103, 5-[6-(7-methyl-[1,2,4]triazolo[4,3-b]pyridazin-6-yl)-7,8-dihydro-5H-1,6-naphthyridin-3-yl]thiazole] | 
20 | 59 | 2.28 |  |  | Cc1ncc(-c2cnc3c(c2)CN(c2nn4cnnc4c(C)c2C)CC3)cn1 [Compound 37, 6-(7,8-dimethyl-[1,2,4]triazolo[4,3-b]pyridazin-6-yl)-3-(2-methylpyrimidin-5-yl)-7,8-dihydro-5H-1,6-naphthyridine] | 
21 |  |  | 111 | 0.145 | Cc1c(N2CCc3ncc(Oc4cccc(F)c4)cc3C2)nn2cnnc2c1C [Compound 160, 6-(7,8-dimethyl-[1,2,4]triazolo[4,3-b]pyridazin-6-yl)-3-(3-fluorophenoxy)-5,6,7,8-tetrahydro-1,6-naphthyridine] | 
22 |  |  | 62 | 3.55 | Cc1cc2nncn2nc1N1CCc2ncc(Nc3nn(C)c4ccccc34)cc2C1 [Compound 204, N-(1-methyl-1H-indazol-3-yl)-6-(7-methyl-[1,2,4]triazolo[4,3-b]pyridazin-6-yl)-5,6,7,8-tetrahydro-1,6-naphthyridin-3-amine] | 
23 | 91 | 0.0861 |  |  | Cc1ccccc1Nc1cnc2c(c1)CN(c1nn3cnnc3c(C)c1C)CC2 [Compound 53, 6-(7,8-dimethyl-[1,2,4]triazolo[4,3-b]pyridazin-6-yl)-N-(o-tolyl)-7,8-dihydro-5H-1,6-naphthyridin-3-amine] | 
24 |  |  | 95 | 0.143 | Cc1c(N2CCc3ncc(C(F)(F)F)cc3C2)nn2c(Cl)nnc2c1C [Compound 268, 6-(3-Chloro-7,8-dimethyl-[1,2,4]triazolo[4,3-b]pyridazin-6-yl)-3-(trifluoromethyl)-7,8-dihydro-5H-1,6-naphthyridine] | 
25 |  |  | 102 | 1.87 | CCC(C)(O)c1cnc2c(c1)CN(c1nn3cnnc3c(C)c1C)CC2 (stereo not shown) [Compound 165, 2-(6-(7,8-dimethyl-[1,2,4]triazolo[4,3-b]pyridazin-6-yl)-5,6,7,8-tetrahydro-1,6-naphthyridin-3-yl)butan-2-ol] | 
26 | 75 | 0.737 |  |  | Cc1c(N2CCc3ncc(NCC4CCCO4)cc3C2)nn2cnnc2c1C (stereo not shown) [Compound 26, 6-(7,8-dimethyl-[1,2,4]triazolo[4,3-b]pyridazin-6-yl)-N-(tetrahydrofuran-2-ylmethyl)-7,8-dihydro-5H-1,6-naphthyridin-3-amine] | 
